Source: patent publication EP1914236A1 (Ortho-McNeil Pharmaceutical, Inc., priority 2002, dated 2003)

Assays:
[1] = target: T1, human B2 bradykinin receptors (Homo sapiens, UniProt P30411); test: Bradykinin B2 (BK2) Receptor Binding Assay; conditions: membranes of CHO-K1 cells transfected with human B2 bradykinin receptors; ~0.25 nM [3H]NPC17731; 60 min at 25°C
T1 construct: purchased Receptor Biology, Inc. (Baltimore, MD); host or cells: CHO-K1 cells transfected with the human B2 receptor (membranes)
T1 sequence (P30411 1-391): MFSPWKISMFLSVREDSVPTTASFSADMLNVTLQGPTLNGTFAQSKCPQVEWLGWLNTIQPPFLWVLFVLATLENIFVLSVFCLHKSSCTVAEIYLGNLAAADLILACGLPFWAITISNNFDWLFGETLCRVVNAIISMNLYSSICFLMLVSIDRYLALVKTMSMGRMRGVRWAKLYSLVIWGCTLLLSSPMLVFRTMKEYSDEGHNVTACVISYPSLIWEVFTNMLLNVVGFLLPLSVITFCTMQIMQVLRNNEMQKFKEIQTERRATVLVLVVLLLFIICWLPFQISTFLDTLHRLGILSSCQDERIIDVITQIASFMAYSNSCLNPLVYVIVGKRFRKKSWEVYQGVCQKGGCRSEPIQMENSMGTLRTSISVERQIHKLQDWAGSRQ
Description: Cell membranes of CHO-K1 cells transfected with human B2 bradykinin receptors (CH)-hB2) were purchased from Receptor Biology, Inc. (Baltimore,MD).
Samples were harvested on a Brandel Cell Harvester on to Wallac filtermat B sheets (96 sample format), and washed three times with 2 mL cold HEPES-buffer (10 mM, pH 7.5), and dried in a microwave oven.
The data were used to calculate either the % inhibition compared to control binding (when only a single concentration of test compound was evaluated) or a Ki value (when a range of concentrations were tested). Background was subtracted from mean cpm values and % inhibition was calculated as: [(total dpm-test compound dpm)/(total dpm-nonspecific dpm)]x100. Kd and Ki values were calculated using GraphPad PRISM data analysis program.

[2] = Graded Abdominal Irritant Test (GrAIT); type: in vivo; conditions: 30 minutes before kaolin (100 mg/kg intraperitoneally), responses counted for 15 minutes, dose not given
Description: The Graded Abdominal Irritant Test (GrAIT) is a modification of the methods described by Koster et al. (Koster R., Anderson M and DeBeer E. J. Fed. Proc. 1959, 18, 412). Prior to the test (30 minutes for oral or subcutaneous administration), each animal was administered a known analgesic, a test compound, or vehicle (0.05N HCl) by one of two routes (oral or subcutaneous).
Kaolin (100 mg/kg) was injected intraperitoneally (using a standard 23G needle) at a volume of 10mL/kg of body weight. Following the administration of the chemical agent, the animals were placed in glass bell jars (approximately 15cm in diameter with wood chips on the bottom). […] A contraction of the abdominal musculature and an elongation of the body, which extends through to the hindlimbs, characterize this response. The responses were counted during the 15-minute time period after the injection of the kaolin. A mechanical counter or a personal computer was used to collect the number of counts per animal, and animals were observed no more than 5 at a time.
The mean number of counts (±SEM) for a group of animals receiving a known analgesic or test compound was compared to the mean for the group of animals which received only vehicle pretreatment (Control group). For each dose, % inhibition of the response was calculated. For each test compound, the EDso value was calculated using a log dose regression analysis program (PharmTools software).

[3] = target: T2, CHO-hB2 cell membranes (Homo sapiens, UniProt P30411); test: [35S]GTPγS Binding Assay in CHO-hB2 Cell Membranes; type: biochemical; conditions: for Functional Activity (% Basal): number in parentheses, bradykinin-stimulated [35S]GTPγS binding, test concentration not given; for Functional Activity: word part of the cell, effect on bradykinin-stimulated [35S]GTPγS binding
T2 construct: purchased Receptor Biology, Inc. (Baltimore, MD); host or cells: CHO-hB2 cells (membranes)
T2 sequence (P30411 1-391): T1 sequence (P30411 1-391)
Description: CHO-hB2 cell membranes were purchased from Receptor Biology, Inc. (Baltimore,MD). 10 mg/mL of membrane protein was suspended in 10 mM TRIS-HC pH 7.2, 2 mM EDTA, 10% sucrose.
Membranes were added into 15 mL ice cold binding assay buffer. The assay buffer contained 50 mM HEPES, pH 7.6, 5 mM MgCl2, 100 mM NaCl, 1 mM DTT and 1 mM EDTA. The membrane suspension was homogenized twice with a Polytron and centrifuged at 3000 rpm for 10 min. The supernatant was then centrifuged at 18,000 rpm for 20 min. The pellet was saved in a tube and resuspended.
The pellet membranes (40 µg/mL) were preincubated with SPA (scintillation proximity assay) beads (20 mg/mL) at 25C° for 45 min in the assay buffer. The SPA beads (5 mg/mL) coupled with membranes (10 µg/mL) were then incubated with 0.5 nM [^35S]GTPγS in the same HEPES buffer containing 50 µM GDP in total volume of 200 µL. Bradykinin was used to stimulate [^35S]GTPγS binding. Varying concentrations of drugs were incubated with bradykinin to inhibit bradykinin-stimulated [^35S]GTPγS binding. The basal binding was tested in the absence of bradykinin and no specific binding was tested in the present 10 µM unlabeled GTPγS. The radioactivity was quantified on a Packard Top Count, and calculated. % of Basal = (stimulated binding-non specific binding)/(basal binding-non specific binding) × 100. [formula]

| Compound | Ki [1] [nM] | Functional Activity (% Basal) [3] [% Basal] | Functional Activity [3] | % Inhibition ([2]; po) | % Inhibition ([2]; sc) [%] |
| --- | --- | --- | --- | --- | --- |
| CCn1c(CC(=O)N(C)c2ccc(C)c(COc3cccc4ccc(C)nc34)c2C)ccc1C(=O)c1ccc(C#N)cc1 [Compound 7] | 48 | – | – | 26% | 42 |
| CCn1c(CC(=O)N(C)c2ccc(Cl)c(COc3cccc4ccc(C)nc34)c2Cl)ccc1C(=O)c1ccc(C#N)cc1 [Compound 8] | 13 | 40 | Antagonist | -11% | 44 |
| CCN(C(=O)Cc1ccc(C(=O)c2ccc(C#N)cc2)n1C)c1ccc(C)c(COc2cccc3ccc(C)nc23)c1C [Compound 16] | 132 | 1 | No effect | 46% | 58 |
| Cc1ccc2cccc(OCc3c(Cl)ccc(N(C)C(=O)Cc4ccc(C(=O)c5ccc([N+](=O)[O-])cc5)n4C)c3Cl)c2n1 [Compound 63] | 178 | 33 | Antagonist | – | – |
| COC(=O)c1ccc(C(=O)c2ccc(CC(=O)N(C)c3ccc(Cl)c(COc4cccc5ccc(C)nc45)c3Cl)n2C)cc1 [Compound 64] | 161 | 45 | Antagonist | – | – |
| Cc1ccc2cccc(OCc3c(Cl)ccc(N(C)C(=O)Cc4ccc(C(=O)c5ccc([N+](=O)[O-])c(C)c5)n4C)c3Cl)c2n1 [Compound 65, N-[2,4-Dichloro-3-(2-methyl-quinolin-8-yloxymethyl)-phenyl]-N-methyl-2-[1-methyl-5-(3-methyl-4-nitro-benzoyl)-1H-pyrrol-2-yl]-acetamide] | 151 | 35 | Antagonist | – | – |
| Cc1ccc2cccc(OCc3c(Cl)ccc(N(C)C(=O)Cc4ccc(C(=O)c5ccccc5[N+](=O)[O-])n4C)c3Cl)c2n1 [Compound 66] | 169 | 35 | Antagonist | – | – |
| CC(=O)Nc1cccc(C(=O)c2ccc(CC(=O)N(C)c3ccc(Cl)c(COc4cccc5ccc(C)nc45)c3Cl)n2C)c1 [Compound 72] | 85 | 74 | Antagonist | – | – |
| Cc1ccc2cccc(OCc3c(C)ccc(N(C)C(=O)CCc4ccc(C(=O)c5cccs5)n4C)c3C)c2n1 [Compound 80] | 141 | 12 | Weak antagonist | – | – |
| Cc1ccc2cccc(OCc3c(Cl)ccc(N(C)C(=O)CCc4ccc(C(=O)c5cccs5)n4C)c3Cl)c2n1 [Compound 81] | 304 | 1 | No effect | – | – |
| Cc1ccc2cccc(OCc3c(C)ccc(N(C)C(=O)CCc4ccc(C(=O)c5ccncc5)n4C)c3C)c2n1 [Compound 82] | 450 | 50 | Antagonist | – | – |
| Cc1ccc2cccc(OCc3c(Cl)ccc(N(C)C(=O)CCc4ccc(C(=O)c5ccncc5)n4C)c3Cl)c2n1 [Compound 83] | 168 | 45 | Antagonist | – | – |
| Cc1ccc2cccc(OCc3c(C)ccc(N(C)C(=O)CCc4ccc(C(=O)c5cccnc5)n4C)c3C)c2n1 [Compound 84] | 304 | 57 | Antagonist | – | – |
| Cc1ccc2cccc(OCc3c(Cl)ccc(N(C)C(=O)CCc4ccc(C(=O)c5cccnc5)n4C)c3Cl)c2n1 [Compound 85] | 15 | 65 | Antagonist | – | – |
| CC(=O)Nc1ccc(C=CC(=O)NC[C@H]2CCCN2c2ccc(C)c(COc3cccc4ccc(C)nc34)c2C)cn1 [Compound 112, 3-(6-Acetytamino-pyridin-3-yl)-N-{1-[2,4-dimethyl-3-(2-methyl-quinolin-8-yloxymethyl)-phenyl]-pyrrolidin-2-(R)ylmethyl}-acrylamide.] | 54 | 59 | Antagonist | – | – |

More lines, main results first:

| Ki [1] [nM] | Functional Activity (% Basal) [3] [% Basal] | Functional Activity [3] | Compound | % Inhibition ([2]; po) | % Inhibition ([2]; sc) [%] |
| --- | --- | --- | --- | --- | --- |
| 342 | 1 | No effect | CCN(C(=O)Cc1ccc(C(=O)c2ccc(Cl)nc2)n1C)c1ccc(Cl)c(COc2cccc3ccc(C)nc23)c1Cl [Compound 17] | -1% | 47 |
| 400 | – | – | Cc1ccc2cccc(OCc3c(Cl)ccc(N(C)C(=O)Cc4ccc(C(=O)c5ccncc5)n4C)c3Cl)c2n1 [Compound 60, N-[2,4-Dichloro-3-(2-methyl-quinolin-8-yloxymethyl)-phenyl]-N-methyl-2-[1-methyl-5-(pyridine-4-carbonyl)-1 H-pyrrol-2-yl]-acetamide] | 44po % | – |
| 189 | 4 | Weak antagonist | COc1ccc(C(=O)c2ccc(CC(=O)N(C)c3ccc(Cl)c(COc4cccc5ccc(C)nc45)c3Cl)n2C)cc1 [Compound 68] | – | – |
| 109 | 41 | Antagonist | CSc1ccc(C(=O)c2ccc(CC(=O)N(C)c3ccc(Cl)c(COc4cccc5ccc(C)nc45)c3Cl)n2C)cc1 [Compound 69] | – | – |
| 74 | 79 | Antagonist | Cc1ccc2cccc(OCc3c(Cl)ccc(N(C)C(=O)Cc4ccc(C(=O)c5ccc(C#N)nc5)n4C)c3Cl)c2n1 [Compound 71] | – | – |
| 64 | 78 | Antagonist | Cc1ccc2cccc(OCc3c(Cl)ccc(N(C)C(=O)Cc4ccc(C(=O)c5ccc([S+](C)[O-])cc5)n4C)c3Cl)c2n1 (centres unmarked) [Compound 73, N-[2,4-Dichloro-3-(2-methyl-quinolin-8-yloxymethyl)-phenyl]-2-[5-(4-methanesuifinyl-benzoyl)-1-methyl-1H-pyrrol-2-yl]-N-methyl-acetamide] | – | – |
| 86.4 | 35 | Antagonist | Cc1ccc2cccc(OCc3c(Cl)cc(Cl)c(N(C)C(=O)Cc4ccc(C(=O)c5ccc(Cl)nc5)n4C)c3Cl)c2n1 [Compound 117, 2-[5-(6-Chloro-pyridine-3-carbonyl)-1-methyl-1H-pyrrol-2-yl]-N-methyl-N-[2,4,6-trichloro-3-(2-methyl-quinolin-8-yloxymethyl)-phenyl]-acetamide] | – | – |
